{"source": "PubChem BioAssay AID651618", "about": "(Broad Institute, 2012)", "note": "Calls of active or inactive are those of the source. The rule behind the calls is not given here."}
{"system": "not listed separately", "assay": "replicating M. tuberculosis growth inhibition, dose response, counter-screen, dry powder, IC90 (AID 651618)", "conditions": "M. tuberculosis replicating log phase, growth inhibition"}
{"molecule": "c1ccc(-c2ccc(CSc3nnc(-c4ccccc4)o3)cc2)cc1", "outcome": "inactive"}
{"molecule": "c1ccc(-c2nnc(SCc3cscn3)o2)cc1", "outcome": "inactive"}
{"molecule": "CN(Cc1ccccc1)c1nnc(-c2ccccc2)o1", "outcome": "inactive"}
{"molecule": "Brc1ccc(CSc2nnc(-c3ccccc3)o2)cc1", "outcome": "inactive"}
{"molecule": "N#Cc1cccc(-c2nnc(SCc3ccccc3)o2)c1", "outcome": "inactive"}
{"molecule": "c1ccc(CSc2nnc(-c3ccccn3)o2)cc1", "outcome": "inactive"}
{"molecule": "CN(C)CCSc1nnc(-c2ccccc2)o1", "outcome": "inactive"}
{"molecule": "Fc1cccc(-c2nnc(SCc3ccccc3)o2)c1", "outcome": "inactive"}
{"molecule": "CS(=O)(=O)c1ccccc1-c1nnc(SCc2ccccc2)o1", "outcome": "inactive"}
{"molecule": "COc1ccc(-c2nnc(SCc3ccccc3)o2)cc1", "outcome": "inactive"}
{"molecule": "c1ccc(-c2nnc(SCCN3CCCC3)o2)cc1", "outcome": "inactive"}
{"molecule": "FC(F)(F)c1ccc(CSc2nnc(-c3ccccc3)o2)cc1", "outcome": "inactive"}
{"molecule": "FC(F)(F)CNCCSc1nnc(-c2ccccc2)o1", "outcome": "inactive"}
{"molecule": "FC(F)(F)Oc1cccc(CSc2nnc(-c3ccccc3)o2)c1", "outcome": "inactive"}
{"molecule": "c1ccc(-c2nnc(SC(c3ccccc3)c3ccccc3)o2)cc1", "outcome": "inactive"}
{"molecule": "c1ccc(CNc2nnc(-c3ccccc3)o2)cc1", "outcome": "inactive"}
{"molecule": "c1ccc(CSc2nnc(-c3cscn3)o2)cc1", "outcome": "inactive"}
{"molecule": "COc1ccccc1CSc1nnc(-c2ccccc2)o1", "outcome": "inactive"}
{"molecule": "FC(F)(F)c1cccc(-c2nnc(SCc3ccccc3)o2)c1", "outcome": "inactive"}
{"molecule": "FC(F)(F)Oc1ccc(CSc2nnc(-c3ccccc3)o2)cc1", "outcome": "inactive"}
{"molecule": "FC(F)(F)c1ccccc1-c1nnc(SCc2ccccc2)o1", "outcome": "inactive"}
{"molecule": "CS(=O)(=O)c1ccc(-c2nnc(SCc3ccccc3)o2)cc1", "outcome": "inactive"}
{"molecule": "O=C(Cc1ccccc1)C(C(=O)c1nnc(-c2ccccc2)o1)c1ccccc1", "note": "(stereo unspecified)", "outcome": "inactive"}
{"molecule": "FC(F)(F)Oc1ccc(-c2nnc(SCc3ccccc3)o2)cc1", "outcome": "inactive"}
{"molecule": "c1ccc(CSc2nnc(Cc3ccccc3)o2)cc1", "outcome": "inactive"}
{"molecule": "Fc1ccc(CSc2nnc(-c3ccccc3)o2)cc1", "outcome": "inactive"}
{"molecule": "c1ccc(CCc2nnc(-c3ccccc3)o2)cc1", "outcome": "inactive"}
{"molecule": "CS(=O)(=O)c1cccc(-c2nnc(SCc3ccccc3)o2)c1", "outcome": "inactive"}
{"molecule": "FC1(F)CN(CCSc2nnc(-c3ccccc3)o2)C1", "outcome": "inactive"}
{"molecule": "c1ccc(CSc2nnc(-c3cc4ccccc4o3)o2)cc1", "outcome": "inactive"}
{"molecule": "c1ccc(CNCCSc2nnc(-c3ccccc3)o2)cc1", "outcome": "inactive"}
{"molecule": "c1ccc(CSc2nnc(-c3ccco3)o2)cc1", "outcome": "inactive"}
{"molecule": "COc1ccc(-c2nnc(SCc3ccc(Cl)cc3)o2)cc1", "outcome": "inactive"}
{"molecule": "c1ccc(CSc2ncc(-c3ccccc3)o2)cc1", "outcome": "inactive"}
{"molecule": "FC(F)(F)Oc1ccccc1-c1nnc(SCc2ccccc2)o1", "outcome": "inactive"}
{"molecule": "c1ccc(-c2nnc(SCCN3CCOCC3)o2)cc1", "outcome": "inactive"}
{"molecule": "c1ccc(CSc2nnc(-c3ccncc3)o2)cc1", "outcome": "inactive"}
{"molecule": "Cc1ccccc1CSc1nnc(-c2ccccc2)o1", "outcome": "inactive"}
{"molecule": "CS(=O)(=O)c1ccccc1CSc1nnc(-c2ccccc2)o1", "outcome": "inactive"}
{"molecule": "N#Cc1ccc(CSc2nnc(-c3ccccc3)o2)cc1", "outcome": "inactive"}
{"molecule": "Fc1ccccc1-c1nnc(SCc2ccccc2)o1", "outcome": "inactive"}
{"molecule": "FC(F)(F)c1ccccc1CSc1nnc(-c2ccccc2)o1", "outcome": "inactive"}
{"molecule": "CS(=O)(=O)c1cccc(CSc2nnc(-c3ccccc3)o2)c1", "outcome": "inactive"}
{"molecule": "c1ccc(CSc2nnc(-c3ccc(-c4ccccc4)cc3)o2)cc1", "outcome": "inactive"}
{"molecule": "Clc1ccc(CSc2nnc(-c3ccccc3)o2)cc1", "outcome": "inactive"}
{"molecule": "COc1ccc(CSc2nnc(-c3ccccc3)o2)cc1", "outcome": "inactive"}
{"molecule": "Cc1cccc(-c2nnc(SCc3ccccc3)o2)c1", "outcome": "inactive"}
{"molecule": "Clc1ccccc1CSc1nnc(-c2ccccc2)o1", "outcome": "inactive"}
{"molecule": "Clc1ccccc1-c1nnc(SCc2ccccc2)o1", "outcome": "inactive"}
{"molecule": "N#Cc1cccc(CSc2nnc(-c3ccccc3)o2)c1", "outcome": "inactive"}
{"molecule": "c1ccc(CSc2nnc(-c3ccccc3)s2)cc1", "outcome": "inactive"}
{"molecule": "N#Cc1ccc(-c2nnc(SCc3ccccc3)o2)cc1", "outcome": "inactive"}
{"molecule": "Clc1cccc(CSc2nnc(-c3ccccc3)o2)c1", "outcome": "inactive"}
{"molecule": "CC1(O)CN(CCSc2nnc(-c3ccccc3)o2)C1", "outcome": "inactive"}
{"molecule": "FC(F)(F)Oc1ccccc1CSc1nnc(-c2ccccc2)o1", "outcome": "inactive"}
{"molecule": "Cc1ccccc1-c1nnc(SCc2ccccc2)o1", "outcome": "inactive"}
{"molecule": "O=C(Cc1ccccc1)c1nnc(-c2ccccc2)o1", "outcome": "inactive"}
{"molecule": "c1ccc(-c2nnc(SCc3ncco3)o2)cc1", "outcome": "inactive"}
{"molecule": "c1ccc(CSc2nnc(-c3cnco3)o2)cc1", "outcome": "inactive"}
{"molecule": "FC(F)(F)c1ccc(-c2nnc(SCc3ccccc3)o2)cc1", "outcome": "inactive"}
{"molecule": "Clc1ccc(-c2nnc(SCc3ccccc3)o2)cc1", "outcome": "inactive"}
{"molecule": "CS(=O)(=O)c1ccc(CSc2nnc(-c3ccccc3)o2)cc1", "outcome": "inactive"}
{"molecule": "Fc1ccc(-c2nnc(SCc3ccccc3)o2)cc1", "outcome": "inactive"}
{"molecule": "N#Cc1ccccc1CSc1nnc(-c2ccccc2)o1", "outcome": "inactive"}
{"molecule": "Clc1cccc(-c2nnc(SCc3ccccc3)o2)c1", "outcome": "inactive"}
{"molecule": "Cc1ccc(CSc2nnc(-c3ccccc3)o2)cc1", "outcome": "inactive"}
{"molecule": "Cc1nnc(SCc2ccccc2)o1", "outcome": "inactive"}
{"system": "M. tuberculosis replicating log phase, growth inhibition", "assay": "replicating M. tuberculosis growth inhibition, dose response, counter-screen, dry powder, IC90 (AID 651618)", "conditions": "not given", "units": {"IC90": "µM"}}
{"molecule": "Fc1cccc(CSc2nnc(-c3ccccc3)o2)c1", "IC90": 250}
{"molecule": "c1ccc(CSc2nnc(-c3cccnc3)o2)cc1", "IC90": 250}
{"molecule": "COc1ccccc1-c1nnc(SCc2ccccc2)o1", "IC90": 250}
{"molecule": "c1ccc(CSc2nnc(C3CCCC3)o2)cc1", "IC90": 250}
{"molecule": "Cc1cccc(CSc2nnc(-c3ccccc3)o2)c1", "IC90": 250}
{"molecule": "c1ccc(CSc2nnc(-c3ccccc3)o2)cc1", "IC90": 125}
{"molecule": "CC(C)c1nnc(SCc2ccccc2)o1", "IC90": 250}
{"molecule": "Fc1ccccc1CSc1nnc(-c2ccccc2)o1", "IC90": 250}
{"molecule": "COCCOCCSc1nnc(-c2ccccc2)o1", "IC90": 250}
{"molecule": "c1ccc(CSc2nnc(C3CCCCC3)o2)cc1", "IC90": 250}
{"molecule": "FC(F)(F)c1cccc(CSc2nnc(-c3ccccc3)o2)c1", "IC90": 250}
{"molecule": "COc1cccc(-c2nnc(SCc3ccccc3)o2)c1", "IC90": 250}
{"molecule": "c1ccc(CSc2nnc(-c3cccs3)o2)cc1", "IC90": 250}
{"molecule": "FC(F)(F)Oc1cccc(-c2nnc(SCc3ccccc3)o2)c1", "IC90": 250}
{"molecule": "Cc1ccc(-c2nnc(SCc3ccccc3)o2)cc1", "IC90": 125}
{"molecule": "c1ccc(-c2nnc(SCCN3CCN(c4ccccc4)CC3)o2)cc1", "IC90": 125}
{"molecule": "COc1cccc(CSc2nnc(-c3ccccc3)o2)c1", "IC90": 250}
{"molecule": "c1ccc(CCc2nnc(SCc3ccccc3)o2)cc1", "IC90": 250}
{"molecule": "FC1(F)CCN(CCSc2nnc(-c3ccccc3)o2)CC1", "IC90": 250}
